Results as given in patent US8921398B2 (Boehringer Ingelheim International GmbH, priority 2011, dated 2014).

Each compound was assayed against T1, human GPR119 (Homo sapiens, UniProt Q8TDV5) (assay: AlphaScreen cAMP assay in MIN6 cells stably transfected with human GPR119). Conditions: Min-6/hGPR119 cells, 45 minutes incubation at room temperature.
T1 construct: expression vector for human GPR119 cDNA (Acc. No. NP_848566); expressed in transfected cells
T1 sequence (Q8TDV5 1-335): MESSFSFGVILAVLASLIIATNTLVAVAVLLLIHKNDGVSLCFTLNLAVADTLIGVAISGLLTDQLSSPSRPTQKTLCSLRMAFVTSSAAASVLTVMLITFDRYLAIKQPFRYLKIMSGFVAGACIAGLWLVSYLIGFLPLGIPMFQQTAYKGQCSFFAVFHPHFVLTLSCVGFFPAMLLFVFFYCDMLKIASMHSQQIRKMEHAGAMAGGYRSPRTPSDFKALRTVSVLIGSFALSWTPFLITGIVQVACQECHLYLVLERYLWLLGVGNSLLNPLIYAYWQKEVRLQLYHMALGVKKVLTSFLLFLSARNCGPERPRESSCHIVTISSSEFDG
Format: cell-based
Description: The compounds of formula I according to the invention modulate the activity of the G-protein-coupled receptor GPR119. The effect of the compounds on the activation of GPR119 and on the stimulation of intracellular cAMP concentration is determined using the AlphaScreen cAMP Assay Kit (Cat.No.#6760625R) made by PerkinElmer.
MIN6 cells [Miyazaki J et al. Endocrinology. 1990 July; 127(1):126-32] are stably transfected with an expression vector for human GPR119 cDNA (Acc. No. NP_848566). Min-6/hGPR119 cells are cultured in DMEM, 10% FBS, 50 μM β-mercaptoethanol, 0.3 mg/mL Geniticin, 2 mM GlutaMAX at 37° C. 5% CO2. For the assay, the cells are seeded in Optiplates (white, 384-well, 160W-barcoded, TC, sterile with lid, Cat.No.#6007688 (Perkin Elmer); 10000 cells/well; 50 μl). The plates covered with lids are then incubated for 24 hours at 37° C./5% CO2. After the medium is aspirated from the wells completely, 10 μl of the test compound are added, the compounds are diluted using stimulating buffer (140 mM NaCl, 3.6 mM KCl, 0.5 mM NaH2PO4, 0.5 mM MgSO4, 1.5 mM CaCl2, 10 mM Hepes, 5 mM NaHCO3; pH 7.4. 0.5 mM IBMX and 0.1% BSA, the final DMSO concentration is 1%). After 45 minutes incubation at room temperature (approx. 20° C.), the cAMP concentrations are determined using the AlphaScreen cAMP Assay Kit (Cat.No.#6760625R from PerkinElmer).
Compound `O=C(c1cnc(-n2ccnc2)nc1)N(C1CC1)C1CCN(c2nc(-c3ccccc3)no2)CC1` [Example 1, 2-Imidazol-1-yl-pyrimidine-5-carboxylic acid cyclopropyl-[1-(3-phenyl-[1,2,4]oxadiazol-5-yl)-piperidin-4-yl]-amide] has an EC50 of 31 nM. `O=C(c1cnc(-c2ccncc2)nc1)N(C1CC1)C1CCN(c2nc(-c3ccccc3)no2)CC1` [Example 2, 2-Pyridin-4-yl-pyrimidine-5-carboxylic acid cyclopropyl-[1-(3-phenyl-[1,2,4]oxadiazol-5-yl)-piperidin-4-yl]-amide] gave an EC50 of 11 nM. Compound `CCOc1ccc(-c2ncc(C(=O)N(C3CC3)C3CCN(c4ncc(CC)cn4)CC3)cn2)cn1` [Example 3, 2-(6-Ethoxy-pyridin-3-yl)-pyrimidine-5-carboxylic acid cyclopropyl-[1-(5-ethyl-pyrimidin-2-yl)-piperidin-4-yl]-amide] has an EC50 of 487 nM. `CCc1cnc(N2CCC(N(C(=O)c3cnc(-c4ccc(C#N)c(F)c4)nc3)C3CC3)CC2)nc1` [Example 4] gave an EC50 of 94 nM. Compound `CCc1cnc(N2CCC(N(C(=O)c3cnc(-c4ccc(CC#N)cc4)nc3)C3CC3)CC2)nc1` [Example 5, 2-(4-Cyanomethyl-phenyl)-pyrimidine-5-carboxylic acid cyclopropyl-[1-(5-ethyl-pyrimidin-2-yl)-piperidin-4-yl]-amide] has an EC50 of 118 nM. `CC(C)c1noc(N2CCC(N(C(=O)c3ccc(-c4ccc(S(C)(=O)=O)cc4)nc3)C3CC3)CC2)n1` [Example 6, N-Cyclopropyl-N-[1-(3-isopropyl-[1,2,4]oxadiazol-5-yl)-piperidin-4-yl]-6-(4-methanesulfonyl-phenyl)-nicotinamide] gave an EC50 of 96 nM. `CCOc1ccc(-c2ncc(C(=O)N(C3CC3)C3CCN(c4nc(-c5ccccc5)no4)CC3)cn2)cn1` [Example 7, 2-(6-Ethoxy-pyridin-3-yl)-pyrimidine-5-carboxylic acid cyclopropyl-[1-(3-phenyl[1,2,4]oxadiazol-5-yl)-piperidin-4-yl]amide] gave an EC50 of 25 nM. Compound `CCc1noc(N2CCC(N(C(=O)c3cnc(-c4ccc(CC#N)cc4)nc3)C3CC3)CC2)n1` [Example 8, 2-(4-Cyanomethyl-phenyl)-pyrimidine-5-carboxylic acid cyclopropyl-[1-(3-ethyl-[1,2,4]oxadiazol-5-yl)-piperidin-4-yl]-amide] has an EC50 of 36 nM. Work on `N#CCc1ccc(-c2ncc(C(=O)N(C3CC3)C3CCN(c4nc(-c5ccccc5)no4)CC3)cn2)cc1` [Example 9, 2-(4-Cyanomethyl-phenyl)-pyrimidine-5-carboxylic acid cyclopropyl-[1-(3-phenyl-[1,2,4]oxadiazol-5-yl)-piperidin-4-yl]-amide] yielded an EC50 of 19 nM. Compound `CCOc1ccc(-c2ncc(C(=O)N(C3CC3)C3CCN(c4nc(CC)no4)CC3)cn2)cn1` [Example 10, 2-(6-Ethoxy-pyridin-3-yl)-pyrimidine-5-carboxylic acid cyclopropyl-[1-(3-ethyl-[1,2,4]oxadiazol-5-yl)-piperidin-4-yl]-amide] has an EC50 of 101 nM. In the case of `CCc1noc(N2CCC(N(C(=O)c3cnc(-c4ccc(C#N)c(F)c4)nc3)C3CC3)CC2)n1` [Example 11, 2-(4-Cyano-3-fluoro-phenyl)-pyrimidine-5-carboxylic acid cyclopropyl-[1-(3-ethyl-[1,2,4]oxadiazol-5-yl)-piperidin-4-yl]-amide], the EC50 is reported as 32 nM. `CCc1cnc(N2CCC(N(C(=O)c3cnc(-n4ccnc4)nc3)C3CC3)CC2)nc1` [Example 12, 2-Imidazol-1-yl-pyrimidine-5-carboxylic acid cyclopropyl-[1-(5-ethyl-pyrimidin-2-yl)-piperidin-4-yl]-amide] gave an EC50 of 35 nM. `CCc1cnc(N2CCC(N(C(=O)c3cnc(-c4ccc(S(C)(=O)=O)cc4)nc3)C3CC3)CC2)nc1` [Example 13, 2-(4-Methanesulfonyl-phenyl)-pyrimidine-5-carboxylic acid cyclopropyl-[1-(5-ethyl-pyrimidin-2-yl)-piperidin-4-yl]-amide] was tested, and the EC50 was 24 nM.

The compounds below were run against T2, mutant form of the human GPR119 receptor (Homo sapiens, UniProt Q8TDV5, S329A/T327A) (assay: LANCE cAMP-384 assay in HEK293 cells stably expressing a mutant form of the human GPR119 receptor). Conditions: cAMP accumulation, GPR119 stable HEK293 cells, LANCE kit, 20 min at 37° C.
T2 construct: expressed in transfected cells
T2 sequence (Q8TDV5 with tags, fused parts or gaps T327A/S329A): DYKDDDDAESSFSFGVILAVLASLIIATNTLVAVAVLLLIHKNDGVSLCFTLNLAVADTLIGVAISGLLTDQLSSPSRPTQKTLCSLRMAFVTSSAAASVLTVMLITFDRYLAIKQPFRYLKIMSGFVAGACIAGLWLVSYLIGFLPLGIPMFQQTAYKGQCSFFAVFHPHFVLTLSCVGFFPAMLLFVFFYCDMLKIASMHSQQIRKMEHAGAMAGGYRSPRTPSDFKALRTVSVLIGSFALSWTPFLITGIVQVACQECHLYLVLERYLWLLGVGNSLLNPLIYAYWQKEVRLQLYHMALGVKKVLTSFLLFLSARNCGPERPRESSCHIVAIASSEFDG
Format: cell-based
Description: Quantitative detection of cAMP accumulation from cells expressing human GPR119 receptor is achieved using Perkin Elmer's LANCE cAMP-384 Kit (Cat#AD0264) according to the manufacturer's protocol. Briefly, HEK293 cells stably expressing a mutant form of the human GPR119 receptor as assay tool (Methionine 1 replaced with the amino acid sequence […], and T327 & S329 changed to alanines; SEQ ID No. 1) are grown to 50-70% confluency in cell culture media (DMEM, 10% heat inactivated Fetal Bovine Serum, 50 I.U./mL penicillin, 50 μg/mL streptomycin, 10 mM HEPES, 20 μg/mL G418 Sulfate). On the day of the assay, GPR119 stable HEK293 cells are lifted from the tissue culture plate and 1000 cells/well are incubated along with various concentrations of test compounds for 20 min at 37° C. Detection Buffer (50 mM HEPES, 10 mM calcium chloride, 0.35% Triton X-100, 1 mg/mL BSA) containing cAMP-specific antibody is then added to all wells and allowed to equilibrate in the dark for 10 minutes at room temperature. Upon equilibration, Detection Buffer containing europium-labeled cAMP tracer complex is added to all wells and allowed to react for 1 hour at room temperature. After 1 hour, bound europium-labeled cAMP tracer is measured using a Perkin Elmer Envision plate reader. The quantity of cAMP generated in each well is derived from a standard curve. EC50 is determined using nonlinear regression analysis of the cAMP values over a range of agonist concentration (12 points spanning the range from 30 μM to 100 pM).
For `Cc1nccn1-c1ccc(C(=O)N(C2CC2)C2CCN(c3nc(C(C)C)no3)CC2)cn1` [Example 51], the EC50 was 593 nM. Compound `Cc1ncnn1-c1ccc(C(=O)N(C2CC2)C2CCN(c3nc(C(C)C)no3)CC2)cn1` [Example 52] has an EC50 of 231 nM. `Cc1nccn1-c1cnc(C(=O)N(C2CC2)C2CCN(c3nc(C(C)C)no3)CC2)cn1` [Example 53] was tested, and the EC50 was 808 nM. For `CC(C)c1noc(N2CCC(N(C(=O)c3cnc(-n4cncn4)cn3)C3CC3)CC2)n1` [Example 54], the EC50 was 812 nM. `Cc1nccn1-c1ncc(C(=O)N(C2CC2)C2CCN(c3nc(C(C)C)no3)CC2)cn1` [Example 55] showed an EC50 of 512 nM. In the case of `Cc1ncn(-c2cnc(C(=O)N(C3CC3)C3CCN(c4nc(C(C)C)no4)CC3)cn2)n1` [Example 56], the EC50 is reported as 473 nM. Compound `Cc1nnnn1-c1ccc(C(=O)N(C2CC2)C2CCN(c3nc(C(C)C)no3)CC2)cn1` [Example 57] has an EC50 of 231 nM. In the case of `CCc1cnc(N2CCC(N(C(=O)c3ccc(-n4ccnc4C)nc3)C3CC3)CC2)nc1` [Example 58], the EC50 is reported as 553 nM. Compound `CCc1cnc(N2CCC(N(C(=O)c3cnc(-n4ccnc4C)cn3)C3CC3)CC2)nc1` [Example 59] has an EC50 of 1240 nM. `CCc1cnc(N2CCC(N(C(=O)c3cnc(-n4cncn4)cn3)C3CC3)CC2)nc1` [Example 60] was tested, and the EC50 was 29 nM. `CCc1cnc(N2CCC(N(C(=O)c3cnc(-n4cncn4)nc3)C3CC3)CC2)nc1` [Example 61] was tested, and the EC50 was 98 nM. Compound `CCc1cnc(N2CCC(N(C(=O)c3cnc(-n4cnc(C)n4)cn3)C3CC3)CC2)nc1` [Example 62] has an EC50 of 185 nM. For `Cc1nccn1-c1ccc(C(=O)N(C2CC2)C2CCN(c3ncc(Cl)cn3)CC2)cn1` [Example 63], the EC50 was 385 nM. Work on `Cc1ncnn1-c1ccc(C(=O)N(C2CC2)C2CCN(c3ncc(Cl)cn3)CC2)cn1` [Example 64] yielded an EC50 of 252 nM. Work on `Cc1nccn1-c1cnc(C(=O)N(C2CC2)C2CCN(c3ncc(Cl)cn3)CC2)cn1` [Example 65] yielded an EC50 of 333 nM. For `O=C(c1cnc(-n2cncn2)nc1)N(C1CC1)C1CCN(c2ncc(Cl)cn2)CC1` [Example 66], the EC50 was 73 nM. `Cc1nccn1-c1ncc(C(=O)N(C2CC2)C2CCN(c3ncc(Cl)cn3)CC2)cn1` [Example 67] showed an EC50 of 45 nM. For `Cc1ncn(-c2cnc(C(=O)N(C3CC3)C3CCN(c4ncc(Cl)cn4)CC3)cn2)n1` [Example 68], the EC50 was 125 nM. In the case of `CCc1cnc(N2CCC(N(C(=O)c3cn(-c4ccc(C#N)cn4)cn3)C3CC3)CC2)nc1` [Example 104], the EC50 is reported as 61 nM. `CCc1cnc(N2CCC(N(C(=O)c3cn(-c4ccc(S(C)(=O)=O)cc4F)cn3)C3CC3)CC2)nc1` [Example 105] showed an EC50 of 233 nM. `CCc1cnc(N2CCC(N(C(=O)c3cn(-c4ccc(C#N)cc4F)cn3)C3CC3)CC2)nc1` [Example 106] showed an EC50 of 57 nM.
